Consider one compound from patent publication US10968214B2, “KRas G12C inhibitors” (Eli Lilly and Company, priority 2018, dated 2021).

Test [1] has as its system MiaPaca-2 xenograft. Briefly: Anti-tumor growth activity, MiaPaca-2 pancreatic xenograft. Type of test: in vivo. The conditions noted are these: for Tumor Growth Inhibition (%) or Regression (−%): 28 Day, negative = regression.
Test [2] concerns H358. As to the kind of experiment: 3D H358 Cell Proliferation Assay. Type of test: cell-based. The conditions noted are these: Homo sapiens, NCI-H358; H358, 3D, 96 hr; read-out: relative IC50. On the procedure:
Human lung cancer cells, H358, (ATCC CRL-5807) are used to evaluate compound inhibition in a 3D proliferation assay. Signal reflecting cell proliferation is detected with the CellTiterGlo® 3D reagent (Promega G9683). The cells are grown in RPMI 1640 (GIBCO®) supplemented with 10% heat inactivated FBS and 0.1 mg/ml penicillin/streptomycin. H358 cells are cultured in the growth phase and five thousand cells per well are plated in a black well clear round bottom 96-well ultra-low attachment surface plate (Corning® Cat 4520) with 80 μl/well of culture media. Cells are incubated overnight at 37° C. in a humidity chamber. 20 μl/well of serially diluted test compound is added to the plate which is then incubated for 96 hr. Plates are brought to RT and an equal volume of RT CellTiterGlo® 3D reagent is added. Plates are shaken at 750 RPM for 10 min at RT After a 1 hr incubation at RT to stabilize the signal, the luminescent signal is measured on the EnVision™ plate reader. The signal is converted to percent inhibition using the following equation: % Inhibition=100−[(Test Compound Signal−Median Minimum Signal)/(Median Maximum Signal−Median Minimum Signal)×100]. The Max Signal is a control well without inhibitor.

The test system of test [3] is D122-96. As to the kind of experiment: CellTiterGlo Cell Proliferation Assay, D122-96. Conditions: KRas G12C, Lung (mouse), 96 hr. Type of test: cell-based. On the procedure:
(§1) A panel of tumor cell lines harboring KRas G12C or other KRas mutations are collected (Table 6). All cell lines are from ATCC or other sources indicated.
(§2) Typically cells are cultured in RPMI1640 or Dulbecco's modified Eagle's medium (DMEM, GIBCO) supplemented with 10% FBS (GIBCO, Invitrogen). For 2D culture cells (4×10^3/well) maintained in growth medium described above, are plated onto 96 well tissue culture plates Corning® Cat. 3603) a day before the treatment. For 3D culture 8000 cells/well are seeded onto 96 well ultra-low attachment tissue culture plates (Corning, #3474). The cells are treated compound for 96 hr, and then are analyzed for viability using the CellTiterGlo® Luminescent Cell Viability Assay® (Promega #G7572 for 2D and Promega #G9683 for 3D cultures) according to manufacturer's instructions and an EnVision™ plate reader. Nonlinear regression and sigmoidal dose-response curves are used to calculate the half maximal inhibitory concentration (IC50) with GraphPad Prism 4® software.
A general note: ATP-based viability assays read luminescence as a measure of living cells.

Test [4] relates to EL3187. As to the kind of experiment: CellTiterGlo Cell Proliferation Assay, EL3187. In kind it is cell-based. The conditions noted are these: KRas G12C, Lung, 96 hr. On the procedure: as §1, §2
Test [5] has as its system H2122. As to the kind of experiment: Combination 4 day growth assay (Cell TiterGlo), H2122. Type of test: cell-based. Conditions: Homo sapiens, NCI-H2122, 96 h, single treatment, read-out: Absolute IC50. On the procedure: (§3) Cell lines for this study are obtained from ATCC and grown under ATCC recommended conditions, except for LXFA-983L, which is obtained from Oncotest/Charles Rivers Laboratories, Wilmington, Mass. and D122-96, which is obtained from L. Eisenbach (Weizman Institute of Science, Rehovot, Israel)—both grown under recommended conditions. […] The proliferation assay is performed as a 4 day growth assay using Cell TiterGlo® as the readout. Briefly, cells are plated in 96-well cell culture plates and allowed to adhere overnight at 37° C. The following day, cells are treated with compounds, either single treatments or combination treatments. First, the testing compounds are serially diluted in DMSO, followed by dilution into media as a 5× concentration with 1% DMSO, and finally added to cells in media to dilute to 1×. The cells are incubated at 37° C. for 4 more days. At the end of the incubation period, Cell TiterGlo® reagent is mixed and added to the wells. After 10 minutes, the luminescence is read by a Perkin Elmer Envision instrument. Absolute IC50 values generated by a 4-parameter logistics model for the single and combination treatments are generated, followed by combination indexes for each combination treatment and cell line. The combination IC50 values are adjusted based on the total concentration of each compound when added together. […] The combination index (CI) measures the degree to which the potency of a combination therapy differs from the expected-if-additive potency and is based on the Loewe definition of additivity.
(§4) [formula] Where • CAy and CBy are the concentrations of therapies A and B that produce an effect, y, when given in combination • ICAy and ICBy are the concentrations of A and B that produce an effect, y, when given individually The biological interpretation of the combination index is as follows: synergistic if the combination index <0.5, additive if the combination index is between 0.5 and 2, and antagonistic if the combination index is >2.

Test [6] deals with H1792. Briefly: CellTiterGlo Cell Proliferation Assay, H1792. Conditions: Homo sapiens, NCI-H1792, KRas G12C, Lung, 96 hr. In kind it is cell-based. On the procedure: as §1, §2
Test [7] has as its system D122-96. As to the kind of experiment: Combination 4 day growth assay (Cell TiterGlo), D122-96. Type of test: cell-based. Conditions: Mus musculus, 96 h, single treatment, read-out: Absolute IC50. On the procedure:
as §3, §4

Setting [8] is: read-out: IC50 (μM) in 2 D cell proliferation.
Where [9] appears, read: read-out: IC50 (μM) in 3 D spheroid cell proliferation.

Each structure is given as a SMILES string. Read-outs that look alike come from different tables or passages of the source. Some results are limits rather than exact numbers.

With `C=CC(=O)N1CCN(c2ncnc3c(F)c(-c4ccc(F)c5sc(N)nc45)c(Cl)cc23)CC1` [Example 1, 1-{4-[7-(2-Amino-7-fluoro-1,3-benzothiazol-4-yl)-6-chloro-8-fluoroquinazolin-4-yl]piperazin-1-yl}prop-2-en-1-one], the “Tumor Growth Inhibition (%) or Regression (−%)” value is recorded as 75.48% in test [1] (10 mg/kg BID), 44.4% in test [1] (10 mg/kg QD), −49.6% in test [1] (30 mg/kg BID) and 95.6% in test [1] (30 mg/kg QD). Further, the “In Vivo Anti-Tumor Activities” value in test [1] (Example 1 30 mg/kg QDx28) worked out at 91.22. Besides, the IC50 in test [2] was less than 11.6 nM; in test [3] (setting [8]), 0.126 µM; in test [3] (setting [9]), 0.069 µM; in test [4] (setting [8]), 0.003 µM; in test [4] (setting [9]), 0.013 µM; in test [5], 2870 nM. For the same compound, the IC50 turned out to be 3.93 µM in test [6] (setting [8]), 3.84 µM in test [6] (setting [9]) and 124 nM in test [7].
